The record followed here is patent US20200172911A1, “USP30 INHIBITORS AND METHODS OF USE” (Genentech, Inc., priority 2012, published 2020).

Read-outs that look alike come from different tables or passages of the source. Where a SMILES comes first, the peptide text is derived from it. Bridges are numbered along the chain shown (N, C = ends). A value given as a limit tells only on which side of the number the result lay.

The test system of data set [1] is Drosophila. As to the kind of experiment: climbing assay with paraquat. The format is in vivo. Conditions: control flies, paraquat 10 mM 48 hours, L-DOPA 1 mM 48 hours. As to the method: Climbing assays were performed using the following Drosophila lines: y, w; Actin5C-GAL4/CyO, y+ (Actin only); y, w; UAS-CG3016-RNAi/CyO, y+ (RNAi only); y, w; UAS-CG3016^RNAi, Actin5C-GAL4/CyO, y+ (USP30 knockdown).
1-day old adult males were fed a solution containing 5% sucrose only (in water) or 5% sucrose+10 mM paraquat (in water) on saturated Whatman paper. After 48 hours of treatment, flies were anesthetized using carbon dioxide and transferred in groups of ten to vials containing only 1% agarose for a 1-hour recovery period from the effects of carbon dioxide. The flies were then transferred into a new glass tube, gently tapped to the bottom and scored for their ability to climb. The number of flies climbing vertically >15 cm in 30 seconds was recorded.
To examine the effect of suppressing USP30 in neurons that are relevant to PD, we used dopamine decarboxylase (Ddc)-GAL439 to drive dUSP30^RNAi specifically in aminergic neurons of the fly nervous system. As a model of mitochondrial damage and PD, we treated flies with paraquat, a mitochondrial toxin linked to PD (Castello et al., J. Biol. Chem., 282: 14186-14193 (2007); Cocheme et al., J. Biol. Chem., 283: 1786-1798 (2008); Tanner et al., Environmental Health Perspect., 119: 866-872 (2011)). […]

Data set [2] concerns the target T1, USP30_cd (USP30 catalytic domain with C77A mutation) (Homo sapiens, UniProt Q70CQ3, C77A).
T1 construct: biotinylated USP30_cd (USP30 catalytic domain with C77A mutation); biotin (biotinylated)
T1 sequence (Q70CQ3 68-502 C77A limits assumed): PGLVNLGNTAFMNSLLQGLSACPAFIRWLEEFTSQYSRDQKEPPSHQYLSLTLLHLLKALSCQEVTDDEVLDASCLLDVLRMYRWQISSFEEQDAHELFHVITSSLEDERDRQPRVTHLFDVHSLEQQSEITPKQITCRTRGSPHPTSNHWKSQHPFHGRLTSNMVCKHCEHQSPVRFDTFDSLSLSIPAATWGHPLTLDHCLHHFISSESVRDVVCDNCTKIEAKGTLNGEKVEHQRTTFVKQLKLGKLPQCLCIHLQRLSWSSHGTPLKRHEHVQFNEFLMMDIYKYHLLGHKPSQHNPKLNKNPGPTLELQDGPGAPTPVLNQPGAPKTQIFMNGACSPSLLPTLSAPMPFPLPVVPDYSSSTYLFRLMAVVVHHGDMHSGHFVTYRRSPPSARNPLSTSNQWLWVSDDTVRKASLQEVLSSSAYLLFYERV
As to the kind of experiment: spot phage ELISA against biotinylated USP30_cd. The format is binding. The conditions noted are these: USP30_cd on NeutrAvidin plate versus NeutrAvidin plate alone. The source says:
The selection identified peptide USP30_3 and USP30_8, which had moderate spot ELISA signals (signal/noise ratios of ˜5). USP_30 and USP_8 have the sequences:
Peptide USP30_3 was selected for affinity maturation. To improve the affinity, a soft randomized library was constructed using the USP30_3 sequence as the targeted parent, and panned against USP30_cd in solution as described previously (Stanger, et al., 2012, Nat. Chem. Bio., 7: 655-660). After four rounds of solution panning, 20 peptides were identified that bound to USP30 catalytic domain with stronger spot phage ELISA signal than the parent USP30_3, manifested by an improvement in the signal/noise ratio of about 3-6 fold.
The sequences for certain affinity matured peptides are shown below the graph, along with the signal to noise ratio (“S/N”), which is the ratio of the spot phage ELISA signal (“signal”) detected against biotinylated USP30 cd captured on NeutrAvidin-coated 384 well Maxisorb plates versus the ELISA signal against the NeutrAvidin-coated plate alone. […] All of the affinity matured peptides shown had signal to noise ratios of greater than 10 except for USP30_3.27 and USP30_3.62.

The format of data set [3] is in vivo, Drosophila. Conditions: 10 mM, 48 hours. As for the experimental part:
1-day old adult males were fed a solution containing 5% sucrose only (in water) or 5% sucrose+10 mM paraquat (in water) on saturated Whatman paper. After 48 hours of treatment, 15 flies were collected per condition and homogenized in 100 μL water. Standard curve samples were generated by spiking appropriate amounts of paraquat to homogenates from untreated flies. Then the samples were vortex mixed, 200 μL of acetonitrile containing internal standard (Propranolol) was added. The samples were vortexed again and centrifuged at 10,000×g for 10 min. Supernatants were transferred to a new plate that contained 200 μL of water and analyzed by LC-MS/MS to quantify for concentrations of paraquat. The LC-MS/MS consisted of an Agilent 1100 series HPLC system (Santa Clara, Calif.) and an HTS PAL autosampler from CTC Analytics (Carrboro, N.C.) coupled with a 4000 Q TRAP® MS and TurbolonSpray® ion source from Applied Biosystems (Foster City, Calif.). HPLC separation was performed on a Waters Atlantis dC18 column (3 μm 100×2.1 mm) with a Krud Katcher guard column from Phenomenex. Quantitation was carried out using the multiple reaction monitoring (MRM) with transition 185.1→165.1 for paraquat and 260.2→183.1 for propranolol. The lower and upper limit of the assay is 10 μM and 1000 μM, respectively. The quatitation of the assay employed a calibration curve which was constructed through plotting the analyte/IS peak area ration versus the nominal concentration of paraquat with a weighed 1/x^2 linear regression.
To test whether USP30 knockdown has an effect on organism survival, we monitored the percentage of live flies over prolonged treatment with paraquat (10 mM, 96 hours). […] We confirmed that the benefit of USP30 knockdown was not due to differences in exposure to paraquat since all three fly lines ingested roughly equal amounts of paraquat as measured by LC-MS/MS (average mass of paraquat per fly: UAS-dUSP30^RNAi: 3.2 μg, Actin-GAL4: 2.7 μg, Actin-GAL4>UAS-dUSP30R^RNAi: 2.7 μg). […]

Data set [4] has as its system Drosophila. The format is in vivo. Conditions: Actin-GAL4 and UAS-dUSP30^RNAi control groups, paraquat 10 mM, 96 hours. As to the method:
Ten adult 1-day old males per vial were fed a solution containing 5% sucrose only (in water) or 5% sucrose+10 mM paraquat (in water) on saturated Whatman paper. The number of live flies was counted at described intervals.
To test whether USP30 knockdown has an effect on organism survival, we monitored the percentage of live flies over prolonged treatment with paraquat (10 mM, 96 hours). […] Only <15% of flies treated with paraquat were alive in Actin-GAL4 and UAS-dUSP30^RNAi control groups at 96 hours whereas ˜45% of flies were alive in the Actin-GAL4>UAS-dUSP30^RNAi (‘whole body dUSP30 knockdown’) group (FIG. 12G). We confirmed that the benefit of USP30 knockdown was not due to differences in exposure to paraquat since all three fly lines ingested roughly equal amounts of paraquat as measured by LC-MS/MS (average mass of paraquat per fly: UAS-dUSP30^RNAi: 3.2 μg, Actin-GAL4: 2.7 μg, Actin-GAL4>UAS-dUSP30R^RNAi: 2.7 μg). […] Remarkably, USP30 knockdown specifically in Ddc neurons was sufficient to provide significant survival benefit, albeit less than the whole body USP30 knockdown (FIG. 12H).

For data set [5], the system named is Drosophila. In words: dopamine levels in fly heads by ELISA. The format is in vivo. The conditions noted are these: control fly lines, paraquat 10 mM, 48 hours. The source says:
To examine the effect of suppressing USP30 in neurons that are relevant to PD, we used dopamine decarboxylase (Ddc)-GAL439 to drive dUSP30^RNAi specifically in aminergic neurons of the fly nervous system. As a model of mitochondrial damage and PD, we treated flies with paraquat, a mitochondrial toxin linked to PD (Castello et al., J. Biol. Chem., 282: 14186-14193 (2007); Cocheme et al., J. Biol. Chem., 283: 1786-1798 (2008); Tanner et al., Environmental Health Perspect., 119: 866-872 (2011)). […] This climbing defect was fully rescued by additional treatment with L-DOPA (FIG. 17D), showing that this behavioral deficit is likely due to depletion of dopamine. Consistently, in control fly lines (Ddc-GAL4 or UAS-dUSP30^RNAi transgenics alone), paraquat treatment (10 mM, 48 hours) caused a 30-60% reduction in dopamine levels in fly heads without altering serotonin neurotransmitter levels (indicating specific toxicity of paraquat on the dopaminergic system in this model—FIG. 12F and FIG. 17E).
A general note: In an ELISA, binding on a coated surface is turned into a signal by an enzyme label.

Another data set has as its system USP30. In words: immunoblot of endogenous USP30 in neuronal cultures. The format is cell-based, rat. An excerpt:
Adeno-associated virus type2 (AAV2) particles expressing Parkin, PINK1 and USP30 shRNAs were produced by Vector Biolabs, Inc. from pAAV-BASIC-CAGeGFP-WPRE vector containing the HI promoter and shRNA expression cassette of the pSuper vectors.
To test the function of endogenous USP30, USP30 was knocked down using shRNAs. In heterologous cells, rat USP30 shRNA plasmid specifically eliminated the expression of transfected rat USP30 cDNA (FIG. 5B). The same rat USP30 shRNA led to a ˜85% reduction in endogenous USP30 in neuronal cultures (FIG. 5C). In neurons, USP30 knockdown increased the lysosomal delivery of mt-Keima (˜60% increase in mitophagy index), relative to negative control luciferase shRNA (FIG. 5D, F).

Data set [6] concerns cultured hippocampal neurons. In words: mt-Keima mitophagy index imaging in hippocampal neurons. The format is cell-based, rat. The conditions noted are these: relative to luciferase shRNA. As for the experimental part: Dissociated hippocampal neuron cultures were prepared as described (Seeburg et al., Neuron 58: 571-583 (2008)) and transfected using Lipofectamine LTX PLUS at DIV 8-10. Constructs were expressed for 1-3 days for overexpression experiments and 3-4 days for knockdown experiments. mt-Keima-transfected neurons were imaged with a Leica TCS SP5 Laser Scanning Confocal microscope with a 40×/1.25 oil objective (0.07 μm/pixel resolution, […] confocal z-step size). Cells were kept in a humidified chamber maintained at 37° C./5% CO2 during imaging. Two images were acquired using a hybrid detector in sequential mode with 458 nm (neutral pH signal) and 543 nm (acidic pH signal) laser excitation, and emission fluorescence collected between 630-710 nm. All image quantification was performed by custom-written macros in ImageJ. For mt-Keima quantification, cell bodies were manually outlined and total area of high ratio (543 nm/458 nm) lysosomal signal was divided by the total area of somatic mitochondrial signal (mitophagy index).
To measure mitophagy in neurons, mt-Keima, a ratiometric pH-sensitive fluorescent protein that is targeted into the mitochondrial matrix, was monitored. A low ratio mt-Keima-derived fluorescence (543 nm/458 nm) reports neutral environment whereas a high ratio fluorescence reports acidic pH (Katayama et al., Chemistry & Biology 18: 1042-1094 (2011)). […]

For another data set, the system named is hippocampal neurons. In words: mito-roGFP relative oxidation index imaging. The conditions noted are these: 0 = after DTT, 1 = after aldrithiol; luciferase shRNA control ~0.6. The format is cell-based, rat. An excerpt: Whether USP30 knockdown provides functional benefit to mitochondria and cells was examined next. ROS—which largely derive from mitochondria—is associated with neurodegenerative disorders and mitochondria dysfunction may contribute to increased oxidative stress in PD (Lee et al., Biochem. J, 441: 523-540 (2012)). To measure oxidative stress in mitochondria, mitochondria matrix-targeted ro-GFP (mito-roGFP), a redox-sensitive fluorescent protein that allows quantitative ratiometric imaging of mitochondrial redox potential was used (Dooley et al., J. Biol. Chem. 279: 22284-22293 (2004)).

For `N[C@@H](Cc1ccc(O)c(O)c1)C(=O)O` [L-DOPA], the “rescue of paraquat-induced climbing defect” value in the data set on Drosophila [1] is reported as “fully rescued”.

Regarding `CC(C)C[C@H](NC(=O)[C@@H]1CCCN1)C(=O)N[C@@H](Cc1ccc(O)cc1)C(=O)N[C@H]1CSSC[C@@H](C(=O)N[C@@H](Cc2ccccc2)C(=O)N[C@@H](Cc2ccc(O)cc2)C(=O)O)NC(=O)[C@H](CC(C)C)NC(=O)[C@H](Cc2ccc(O)cc2)NC(=O)CNC(=O)[C@H](Cc2ccc(O)cc2)NC(=O)[C@H]([C@@H](C)O)NC(=O)[C@H](CC(C)C)NC(=O)[C@H](CC(=O)O)NC(=O)[C@H](Cc2ccc(O)cc2)NC(=O)[C@H](Cc2ccccc2)NC1=O` [USP30_3, PLYCFYDLTYGYLCFY] (H-PLYCFYDLTYGYLCFY-OH; disulfide 4-14; N-terminus and C-terminus assumed), in data set [2], the “spot ELISA signal/noise ratio” value is reported as about 5.

On to `C[n+]1ccc(-c2cc[n+](C)cc2)cc1` [paraquat, paraquat dichloride], for which the “average mass of paraquat per fly” value was 2.7 µg in data set [3] (Actin-GAL4>UAS-dUSP30^RNAi flies), 2.7 µg in data set [3] (Actin-GAL4 flies) and 3.2 µg in data set [3] (UAS-dUSP30^RNAi flies). In the data set on Drosophila [4], the flies alive is listed as under 15%. Moreover, the “reduction in dopamine levels in fly heads” value in the data set with Drosophila [5] is 30-60%.

Turning to “CCAGAGCCCTGTTCGGTTT ((CCAGAGCCCTGTTCGGTTT; as printed in the source, key not given here) [rat USP30 shRNA]”, the “reduction in endogenous USP30” value with USP30 is given as about 85%. Besides, the “increase in mitophagy index” value in data set [6] was about 60%. In the data set on hippocampal neurons, this compound returned a relative oxidation index of about 0.4.
